“And” between values parts separate entries of the source, which are not always exact repeats. Equal entries are not always repeated. Where two headings read alike, the source gives them in different places.
Tests used:
FES^S700C HL-60 cells = assay: Proliferation ratio during macrophage differentiation; type: cell-based, human; conditions: for Proliferation ratio: Figure 6e, S700C
Method: (§1) Cells were pretreated with vehicle or WEL028 (100 or 1000 nM, 1 h) prior to induction of differentiation towards monocytes/macrophages with PMA (16 nM, 48 h). Medium was refreshed with growth medium containing WEL028 and PMA after 24 h to maintain full FES inhibition. […] Threshold for CD11b-positive cells was determined using isotype control antibody. […] Kinases with native cysteine at DFG-1 position are shown in bold. All data represent means ± SEM.
(§2) Cell lines were purchased at ATCC (HEK293T: ATCC® CRL-11268™, U2OS: ATCC® HTB-96™, HL-60: ATCC® CCL-240™) and were tested on regular basis for mycoplasma contamination. Cultures were discarded after 2–3 months of use. HEK293T (human embryonic kidney) and U2OS (human osteosarcoma) cells were cultured at 37 °C under 7% CO2 in DMEM containing phenol red, stable glutamine, 10% (v/v) high iron newborn calf serum (Seradigm), penicillin and streptomycin (200 μg/mL each; Duchefa). Medium was refreshed every 2–3 days and cells were passaged two times a week at 80–90% confluence. HL-60 (human promyeloblast) cells were cultured at 37 °C under 5% CO2 in HEPES-supplemented RPMI containing phenol red, stable glutamine, 10% (v/v) fetal calf serum (Biowest), penicillin and streptomycin (200 μg/mL each), unless stated otherwise. Cell density was maintained between 0.2 × 10^6 and 2.0 × 10^6 cells/mL. Cell viability was assessed by Trypan Blue exclusion and quantification using a TC20™ Automated Cell Counter (Bio-Rad).

WT HL-60 cells = assay: as above; type: cell-based, human; conditions: Figure 6e
Method: as §1, §2

CAMK2B (CaMKII beta) = CAMK2B (CaMKII beta) (Homo sapiens, UniProt Q13554); assay: SelectScreen kinase assay
Method: (§3) Selectivity profiling assays were performed by the Invitrogen SelectScreen™ Services. […] The concentration of ATP was selected to be equal to the KM, unless indicated otherwise.

CSK = CSK (Homo sapiens, UniProt P41240); assay: SelectScreen kinase assay; conditions: for Inhibition at 1 µM (%): CSK, ZLYTE, ATP Km app
Method: as §3

DAPK2 = DAPK2 (Homo sapiens, UniProt Q9UIK4); assay: SelectScreen kinase assay; conditions: for Inhibition at 1 µM (%): DAPK2, LanthaScreen Binding
Method: as §3

MAP2K5 (MEK5) = molecular target: T1, MAP2K5 (MEK5) (Homo sapiens, UniProt Q13163); assay: SelectScreen kinase assay
T1 sequence (Q13163 1-448): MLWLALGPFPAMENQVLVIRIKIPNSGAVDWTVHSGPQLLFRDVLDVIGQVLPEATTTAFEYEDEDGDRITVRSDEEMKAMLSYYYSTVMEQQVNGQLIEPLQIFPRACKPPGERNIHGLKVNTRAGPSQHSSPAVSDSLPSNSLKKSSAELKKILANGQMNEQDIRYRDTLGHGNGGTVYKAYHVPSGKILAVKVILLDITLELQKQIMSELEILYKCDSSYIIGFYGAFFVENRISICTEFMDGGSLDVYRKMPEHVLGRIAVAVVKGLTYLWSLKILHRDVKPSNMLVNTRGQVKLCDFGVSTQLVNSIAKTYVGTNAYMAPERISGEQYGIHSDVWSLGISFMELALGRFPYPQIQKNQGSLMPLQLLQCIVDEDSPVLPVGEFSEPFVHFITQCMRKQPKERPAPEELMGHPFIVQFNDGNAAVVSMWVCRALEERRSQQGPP
Method: as §3

MATK (HYL) = MATK (HYL) (Homo sapiens, UniProt P42679); assay: SelectScreen kinase assay
Method: as §3

PAK6 = PAK6 (Homo sapiens, UniProt Q9NQU5); assay: SelectScreen kinase assay; conditions: 1 h, 1 μM WEL028, 1 h preincubation
Method: as §3

PIP5K1B = PIP5K1B (Homo sapiens, UniProt O14986); assay: SelectScreen kinase assay; conditions: for Inhibition at 1 µM (%): PIP5K1B, Adapta, ATP 10
Method: as §3

ULK1 = molecular target: T2, ULK1 (Homo sapiens, UniProt O75385); assay: SelectScreen kinase assay
T2 sequence (O75385 1-1050): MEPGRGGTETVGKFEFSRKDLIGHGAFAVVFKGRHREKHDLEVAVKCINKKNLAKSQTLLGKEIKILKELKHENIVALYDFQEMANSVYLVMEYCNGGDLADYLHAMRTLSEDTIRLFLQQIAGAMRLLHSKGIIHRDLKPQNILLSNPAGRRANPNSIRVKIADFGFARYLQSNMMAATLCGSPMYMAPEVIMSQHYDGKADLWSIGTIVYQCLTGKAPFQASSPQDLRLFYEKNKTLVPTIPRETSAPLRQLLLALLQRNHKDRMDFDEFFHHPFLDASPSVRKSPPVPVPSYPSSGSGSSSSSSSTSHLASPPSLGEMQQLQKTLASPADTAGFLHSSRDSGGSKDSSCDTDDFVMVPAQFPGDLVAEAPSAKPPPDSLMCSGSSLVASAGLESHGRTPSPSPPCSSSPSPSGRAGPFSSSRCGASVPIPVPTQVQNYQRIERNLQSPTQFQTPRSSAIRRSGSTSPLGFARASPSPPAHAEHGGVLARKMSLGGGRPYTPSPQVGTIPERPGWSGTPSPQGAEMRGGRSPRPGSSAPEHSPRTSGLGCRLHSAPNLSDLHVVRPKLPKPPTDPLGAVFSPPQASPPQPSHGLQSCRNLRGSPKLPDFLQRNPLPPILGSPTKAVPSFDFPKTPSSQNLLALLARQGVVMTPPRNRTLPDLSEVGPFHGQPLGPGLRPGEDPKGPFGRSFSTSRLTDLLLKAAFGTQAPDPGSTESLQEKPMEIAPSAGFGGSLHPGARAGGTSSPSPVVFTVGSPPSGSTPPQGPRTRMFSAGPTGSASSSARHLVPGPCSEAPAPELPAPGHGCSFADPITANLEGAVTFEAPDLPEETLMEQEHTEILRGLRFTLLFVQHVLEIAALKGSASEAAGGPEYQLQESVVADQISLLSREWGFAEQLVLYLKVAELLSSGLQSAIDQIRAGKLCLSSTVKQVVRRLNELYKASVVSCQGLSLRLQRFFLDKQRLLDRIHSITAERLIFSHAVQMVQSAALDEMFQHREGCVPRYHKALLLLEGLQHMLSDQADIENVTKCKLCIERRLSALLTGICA
Method: as §3

[1] = 1 h, 1 μM WEL028, 1 h preincubation

Sequence of PIP5K1B (O14986 whole entry): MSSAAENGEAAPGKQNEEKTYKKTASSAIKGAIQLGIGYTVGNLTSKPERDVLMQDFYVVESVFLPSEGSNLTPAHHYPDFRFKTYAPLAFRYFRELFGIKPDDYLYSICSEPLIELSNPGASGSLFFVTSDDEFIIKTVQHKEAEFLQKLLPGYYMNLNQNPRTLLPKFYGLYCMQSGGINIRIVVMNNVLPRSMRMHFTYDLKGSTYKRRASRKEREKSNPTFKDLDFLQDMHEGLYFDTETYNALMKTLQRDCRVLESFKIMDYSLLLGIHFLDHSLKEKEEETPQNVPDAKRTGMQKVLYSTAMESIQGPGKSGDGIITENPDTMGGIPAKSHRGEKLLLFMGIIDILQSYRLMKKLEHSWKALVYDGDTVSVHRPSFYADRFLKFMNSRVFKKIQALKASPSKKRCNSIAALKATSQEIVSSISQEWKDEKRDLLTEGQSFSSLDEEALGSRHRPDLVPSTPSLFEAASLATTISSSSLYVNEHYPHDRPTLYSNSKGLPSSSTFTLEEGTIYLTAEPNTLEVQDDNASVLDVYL
Sequence of CSK (P41240 whole entry): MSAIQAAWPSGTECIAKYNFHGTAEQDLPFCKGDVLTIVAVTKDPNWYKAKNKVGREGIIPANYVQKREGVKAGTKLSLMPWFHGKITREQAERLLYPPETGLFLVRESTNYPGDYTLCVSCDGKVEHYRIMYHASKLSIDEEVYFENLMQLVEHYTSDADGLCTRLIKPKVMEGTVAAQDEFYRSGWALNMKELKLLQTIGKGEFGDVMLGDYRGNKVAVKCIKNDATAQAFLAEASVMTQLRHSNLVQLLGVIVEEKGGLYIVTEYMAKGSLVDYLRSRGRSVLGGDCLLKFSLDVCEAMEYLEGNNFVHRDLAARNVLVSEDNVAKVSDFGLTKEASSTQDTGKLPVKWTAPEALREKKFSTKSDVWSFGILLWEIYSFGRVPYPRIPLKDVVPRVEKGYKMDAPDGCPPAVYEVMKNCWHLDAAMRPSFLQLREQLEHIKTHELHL
Sequence of CAMK2B (CaMKII beta) (Q13554 whole entry): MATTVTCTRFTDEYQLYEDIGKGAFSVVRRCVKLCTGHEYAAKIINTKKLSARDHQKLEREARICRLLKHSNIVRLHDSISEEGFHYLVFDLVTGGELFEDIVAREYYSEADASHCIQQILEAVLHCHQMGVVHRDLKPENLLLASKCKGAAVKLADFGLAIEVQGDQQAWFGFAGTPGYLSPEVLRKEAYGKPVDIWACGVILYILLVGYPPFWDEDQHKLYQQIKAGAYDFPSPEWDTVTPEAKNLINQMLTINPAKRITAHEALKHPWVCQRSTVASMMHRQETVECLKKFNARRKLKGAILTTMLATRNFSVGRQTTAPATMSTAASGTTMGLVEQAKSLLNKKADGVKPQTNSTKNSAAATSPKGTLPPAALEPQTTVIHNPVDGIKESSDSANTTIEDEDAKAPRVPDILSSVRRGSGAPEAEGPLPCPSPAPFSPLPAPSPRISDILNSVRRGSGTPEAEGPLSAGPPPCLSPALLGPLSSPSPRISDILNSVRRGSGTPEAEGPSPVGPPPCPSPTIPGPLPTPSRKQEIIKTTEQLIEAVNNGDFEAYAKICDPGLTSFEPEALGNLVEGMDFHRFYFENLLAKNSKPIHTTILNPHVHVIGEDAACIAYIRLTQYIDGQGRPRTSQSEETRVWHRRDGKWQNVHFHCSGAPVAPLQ
Sequence of DAPK2 (Q9UIK4 whole entry): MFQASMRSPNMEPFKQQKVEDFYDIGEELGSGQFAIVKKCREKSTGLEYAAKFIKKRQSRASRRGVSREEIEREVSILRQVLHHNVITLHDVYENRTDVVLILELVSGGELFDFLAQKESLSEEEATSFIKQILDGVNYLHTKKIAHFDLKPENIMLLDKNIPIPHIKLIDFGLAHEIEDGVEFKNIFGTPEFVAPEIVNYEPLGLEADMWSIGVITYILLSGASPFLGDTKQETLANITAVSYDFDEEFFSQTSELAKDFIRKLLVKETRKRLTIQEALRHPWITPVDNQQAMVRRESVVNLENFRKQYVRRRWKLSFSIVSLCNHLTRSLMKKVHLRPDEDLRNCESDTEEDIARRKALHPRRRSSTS
Sequence of MATK (HYL) (P42679 whole entry): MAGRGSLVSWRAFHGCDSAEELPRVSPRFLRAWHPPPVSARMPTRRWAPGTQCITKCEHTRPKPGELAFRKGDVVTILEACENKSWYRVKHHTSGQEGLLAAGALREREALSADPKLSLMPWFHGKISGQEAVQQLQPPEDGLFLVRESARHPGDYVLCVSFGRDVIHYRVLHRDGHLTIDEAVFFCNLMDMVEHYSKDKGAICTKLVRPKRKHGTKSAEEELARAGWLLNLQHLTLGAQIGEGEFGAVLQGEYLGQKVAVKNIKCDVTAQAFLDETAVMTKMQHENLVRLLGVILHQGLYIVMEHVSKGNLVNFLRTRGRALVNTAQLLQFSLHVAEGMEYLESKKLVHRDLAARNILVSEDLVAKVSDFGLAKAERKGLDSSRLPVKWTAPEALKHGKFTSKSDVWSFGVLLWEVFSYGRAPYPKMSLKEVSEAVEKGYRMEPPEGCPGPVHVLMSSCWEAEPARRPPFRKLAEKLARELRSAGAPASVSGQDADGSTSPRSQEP
Sequence of PAK6 (Q9NQU5 whole entry): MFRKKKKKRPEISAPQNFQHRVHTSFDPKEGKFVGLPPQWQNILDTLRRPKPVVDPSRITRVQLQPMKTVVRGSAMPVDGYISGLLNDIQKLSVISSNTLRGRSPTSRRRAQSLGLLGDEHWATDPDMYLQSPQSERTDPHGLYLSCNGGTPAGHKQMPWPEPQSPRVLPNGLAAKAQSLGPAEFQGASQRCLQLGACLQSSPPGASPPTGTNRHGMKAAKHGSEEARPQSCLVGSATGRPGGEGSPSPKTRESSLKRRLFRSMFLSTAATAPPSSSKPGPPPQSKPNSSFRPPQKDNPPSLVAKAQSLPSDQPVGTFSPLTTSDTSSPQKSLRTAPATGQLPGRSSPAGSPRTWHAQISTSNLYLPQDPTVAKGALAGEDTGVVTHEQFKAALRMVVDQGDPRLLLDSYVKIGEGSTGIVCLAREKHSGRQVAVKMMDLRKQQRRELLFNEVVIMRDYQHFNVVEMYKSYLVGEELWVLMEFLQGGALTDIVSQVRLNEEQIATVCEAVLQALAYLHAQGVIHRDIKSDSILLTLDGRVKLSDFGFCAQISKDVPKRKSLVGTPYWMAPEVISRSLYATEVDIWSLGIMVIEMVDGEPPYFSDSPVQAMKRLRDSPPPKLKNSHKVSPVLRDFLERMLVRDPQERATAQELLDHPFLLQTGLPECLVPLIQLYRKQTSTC

SMILES: C#CCOc1ccc(Nc2ncc(Cl)c(Nc3ccccc3NC(=O)C=C)n2)c(OC)c1 [Compound 6]
- Cell proliferation (FES^S700C HL-60 cells; 100 nM WEL028 vs vehicle): decreased to identical levels
- Cell proliferation (FES^S700C HL-60 cells; 1 µM WEL028): less pronounced decrease in proliferation
- Proliferation ratio (FES^S700C HL-60 cells; WEL028 100 nM): 1.219 and 1.226 and 1.503
- Proliferation ratio (FES^S700C HL-60 cells; WEL028 1 µM): 2.372 and 2.5075 and 3.084
- Proliferation ratio (WT HL-60 cells; WEL028 100 nM): 1.995 and 1.877 and 1.706
- Proliferation ratio (WT HL-60 cells; WEL028 1 µM): 2.7225 and 2.805 and 3.0525
- inhibition at 1 µM (CAMK2B (CaMKII beta); [1]): 0%
- Inhibition at 1 µM (%) (CAMK2B (CaMKII beta); CAMK2B (CaMKII beta), 1 µM, ZLYTE, ATP Km app, listed as WEL028, 1 µM): -1% and 1%
- Inhibition (%) (CSK; 1 μM WEL028, 1 h preincubation): 5%
- Inhibition at 1 µM (%) (CSK): 2%
- Inhibition at 1 µM (%) (CSK; listed as WEL028, 1 µM): 8%
- inhibition at 1 µM (DAPK2; [1]): 10%
- Inhibition at 1 µM (%) (DAPK2): 14%
- Inhibition at 1 µM (%) (DAPK2; listed as WEL028, 1 µM): 6%
- inhibition at 1 µM (MAP2K5 (MEK5); [1]): 53%
- Inhibition at 1 µM (%) (MAP2K5 (MEK5); MAP2K5 (MEK5), 1 µM, LanthaScreen Binding, listed as WEL028, 1 µM): 52%
- inhibition at 1 µM (MAP2K5 (MEK5); read-out: Inhibition at 1 µM (%), MAP2K5 (MEK5), 1 µM, LanthaScreen Binding): 53%
- inhibition at 1 µM (MATK (HYL); 1 h): 8%
- inhibition at 1 µM (MATK (HYL); read-out: Inhibition at 1 µM (%)): 8%
- inhibition at 1 µM (PAK6): -7%
- inhibition at 1 µM (PIP5K1B; [1]): -11%
- Inhibition at 1 µM (%) (PIP5K1B): -13%
- Inhibition at 1 µM (%) (PIP5K1B; listed as WEL028, 1 µM): -9%
- Inhibition (%) (ULK1; 1 μM WEL028, 1 h preincubation): 4%
- Inhibition at 1 µM (%) (ULK1; 1 µM, LanthaScreen Binding, listed as WEL028, 1 µM): 4%
- inhibition at 1 µM (ULK1; read-out: Inhibition at 1 µM (%), 1 µM, LanthaScreen Binding): 5%

— paper PMC7316778 (Nature Communications, 2020)
